This passage reports IC50 results from patent publication US20240360154A1, “AROYL SUBSTITUTED TRICYCLIC COMPOUND, PREPARATION METHOD THEREFOR AND USE THEREOF” (GENFLEET THERAPEUTICS (SHANGHAI) INC., priority 2020, published 2024).

In one test the target is BTK (C481S) (Homo sapiens (Human), UniProt Q06187, C481S). Kind of test: BTK C481S enzyme experiment (ADP-Glo kinase assay). It is filed as biochemical. As to conditions: 10 nM BTK C481S, ATP 125 μM, Poly(Glu4, Tyr1), 90 minutes at 20° C. The procedure:
(§1) A 3-fold gradient concentration stock solution of 1000× compound was prepared using DMSO and diluted 100-fold to 10× compound stock solution using reaction buffer (50 mM HEPES, pH 7.5, 0.0015% Briji-35, 2 mM DTT, 10 mM MgCl2), and the 10× compound stock solution was transferred to a 384-well plate. Enzyme reactions were set up with BTK Kinase Enzyme System (Promega Catalog #V2941) or BTK (C481S) Kinase Enzyme System (Promega Catalog #VA7033). First, a 2× enzyme solution containing 10 nM BTK or 10 nM BTK C481S was prepared with reaction buffer and added to the plate, and incubated with the compound for 10 minutes. […] Finally, the kinase activity was detected according to the experimental steps provided by ADP-Glo™ kinase Assay Kit (Promega, #V9101), and finally the luminescence chemiluminescence value was read. DMSO was used as the maximum signal value, and adding no enzyme was used as the minimum signal value. The inhibition rate of the compound (%)=(maximum signal value−compound signal value)/(maximum signal value−minimum signal value)×100% was calculated. The compound gradient dilution concentration and the corresponding inhibition rate of the enzyme activity were fit by using XLFit four-parameter method, and IC50 value was calculated.
(In general: ADP-Glo turns the ADP formed in a reaction into a luminescent signal.)

A further test deals with TMD-8 cells. Kind of test: TMD-8 proliferation inhibition experiment. The class given is cell-based. As to conditions: human diffuse large B lymphoma cells, three days incubation. The procedure: TMD-8 cells are human diffuse large B lymphoma (Mingzhou Bio, MZ-0832), cultured in 10% FBS+1% PS 1640 medium; OCI-LY10 is human diffuse large B lymphoma (BeNa Culture Collection, BNCC337742), cultured in 10% FBS+1% PS IMDM. Day 1: Cells at logarithmic growth phase were taken, counted and inoculated 600 TMD-8 or 2000 OCI-LY10 cells in a 384-well cell culture plate and cultured overnight. Day 2: A 3-fold gradient concentration stock solution of 400× compound was prepared with DMSO, and diluted 40-fold to a 10× compound stock solution with culture medium. The 10× compound stock solution was added to each cell culture well with a final concentration of 1× compound stock solution and a DMSO content of 0.25%. DMSO was used as experimental control, and culture medium was used as blank control. The incubation was continued for three days after compound addition. On the fifth day, 25 μL of […] was added to each well, mixed well and incubated for 10 minutes, then the chemiluminescence value (RLU value) was read. The cell proliferation inhibition rate (%)=(RLUcontrol−RLUcompound)/(RLUcontrol−RLUblank)×100% was calculated. The compound gradient dilution concentration and the corresponding cell proliferation inhibition rate were fit by using XLFit four-parameter method, and IC50 value was calculated.

A further test deals with BTK (Homo sapiens (Human), UniProt Q06187). Kind of test: BTK enzyme experiment (ADP-Glo kinase assay). The class given is biochemical. The following applies: 10 nM BTK, ATP 125 μM, Poly(Glu4, Tyr1), 90 minutes at 20° C.; read-out: BTK(WT) IC50. The protocol:
as §1

Chain of BTK (C481S) (Q06187 whole entry C481S): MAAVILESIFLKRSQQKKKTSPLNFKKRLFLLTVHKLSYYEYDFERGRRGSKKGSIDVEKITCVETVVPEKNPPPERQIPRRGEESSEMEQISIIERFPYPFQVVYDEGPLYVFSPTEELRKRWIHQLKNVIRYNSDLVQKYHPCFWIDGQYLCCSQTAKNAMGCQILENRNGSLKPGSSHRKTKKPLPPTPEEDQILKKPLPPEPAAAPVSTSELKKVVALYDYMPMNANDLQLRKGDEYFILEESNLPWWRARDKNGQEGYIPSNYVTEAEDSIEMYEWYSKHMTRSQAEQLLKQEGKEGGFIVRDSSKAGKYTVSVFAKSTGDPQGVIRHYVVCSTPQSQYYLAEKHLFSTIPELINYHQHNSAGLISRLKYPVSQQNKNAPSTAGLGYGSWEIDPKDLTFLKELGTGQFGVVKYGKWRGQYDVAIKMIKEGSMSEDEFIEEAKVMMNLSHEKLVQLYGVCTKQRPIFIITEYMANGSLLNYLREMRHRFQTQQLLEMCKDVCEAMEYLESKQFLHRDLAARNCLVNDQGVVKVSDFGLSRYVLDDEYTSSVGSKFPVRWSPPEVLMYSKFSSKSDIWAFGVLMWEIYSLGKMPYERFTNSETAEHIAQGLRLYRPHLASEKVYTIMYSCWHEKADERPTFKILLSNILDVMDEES
Chain of BTK (Q06187 whole entry): as the sequence (Q06187 whole entry C481S) above, with S481C counted along it

In the case of `O=C(c1ccc(Oc2ccccc2)cc1Cl)c1c[nH]c2ncc3c(c12)N[C@@]1(CCOC1)C(=O)N3` (single isomer, unassigned) [Z1-1], the figures for the IC50 on BTK (C481S), with TMD-8 cells and on BTK were 23.6 nM, 183 nM and 67.1 nM, respectively.

As for `O=C(c1ccc(Oc2ccccc2)cc1Cl)c1c[nH]c2ncc3c(c12)N[C@]1(CCOC1)C(=O)N3` (single isomer, unassigned) [Z1-2], the IC50 amounted to 27.2 nM against BTK (C481S), 232 nM in the test with TMD-8 cells and 64.7 nM at BTK.

`CC(=O)N1CC[C@@]2(C1)Nc1c(cnc3[nH]cc(C(=O)c4ccc(Oc5ccccc5)cc4Cl)c13)NC2=O` (single isomer, unassigned) [Z4-2]: the values for the IC50 against BTK (C481S), in the test on TMD-8 cells and on BTK were 19.8 nM, 1200 nM and 46.1 nM, respectively.

`C[C@]1(CO)Nc2c(cnc3[nH]cc(C(=O)c4ccc(Oc5ccccc5)cc4Cl)c23)NC1=O` (single isomer, unassigned) [Z9-1]: the IC50 against BTK (C481S) was found to be 20 nM; in the test with TMD-8 cells, 389 nM; on BTK, 20 nM.

`O=C(c1ccc(Oc2ccccc2)cc1Cl)c1c[nH]c2ncc3c(c12)N[C@@]1(CC[C@H](O)C1)C(=O)N3` (single isomer, unassigned) [Z24-1]: the figures for the IC50 against BTK (C481S), in the test with TMD-8 cells and on BTK were 3.7 nM, 55.4 nM and 3.5 nM, respectively.

Turning to `O=C(c1ccc(Oc2ccccc2)cc1Cl)c1c[nH]c2ncc3c(c12)N[C@]1(CC[C@H](O)C1)C(=O)N3` (single isomer, unassigned) [Z24-2], the results for the IC50 at BTK (C481S), with TMD-8 cells and on BTK were 4.7 nM, 63.1 nM and 5 nM, respectively.

For `COC1CCC2(C1)Nc1c(cnc3[nH]cc(C(=O)c4ccc(Oc5ccccc5)cc4Cl)c13)NC2=O` (single isomer, unassigned) [Z25-1, 9′-(2-chloro-4-phenoxybenzoyl)-3-methoxy-4′,7′-dihydrospiro[cyclopentane-1,2′-pyrrolo[3′,2′:5,6]pyrido[3,4-b]pyrazin]-3′(1′H)-one], the IC50 on BTK (C481S) came to 19.8 nM; in the test on TMD-8 cells (Homo sapiens, TMD8, 72 h) it was 101 nM; on BTK, 32 nM.

Consider `COC1CCC2(C1)Nc1c(cnc3[nH]cc(C(=O)c4ccc(Oc5ccccc5)cc4Cl)c13)NC2=O` (single isomer, unassigned) [Z25-3, 9′-(2-chloro-4-phenoxybenzoyl)-3-methoxy-4′,7′-dihydrospiro[cyclopentane-1,2′-pyrrolo[3′,2′:5,6]pyrido[3,4-b]pyrazin]-3′(1′H)-one], for which the IC50 against BTK (C481S) was found to be 16.4 nM; in the test with TMD-8 cells, 108 nM; at BTK it was 22.4 nM.

Turning to `COC1CCC2(C1)Nc1c(cnc3[nH]cc(C(=O)c4ccc(Oc5ccccc5)cc4Cl)c13)NC2=O` (single isomer, unassigned) [Z25-3a, 9′-(2-chloro-4-phenoxybenzoyl)-3-methoxy-4′,7′-dihydrospiro[cyclopentane-1,2′-pyrrolo[3′,2′:5,6]pyrido[3,4-b]pyrazin]-3′(1′H)-one], the IC50 turned out to be 7.6 nM on BTK (C481S), 102 nM in the test on TMD-8 cells and 15.4 nM at BTK.

For `COC1CCC2(C1)Nc1c(cnc3[nH]cc(C(=O)c4ccc(Oc5ccccc5)cc4Cl)c13)NC2=O` (single isomer, unassigned) [Z25-3b, 9′-(2-chloro-4-phenoxybenzoyl)-3-methoxy-4′,7′-dihydrospiro[cyclopentane-1,2′-pyrrolo[3′,2′:5,6]pyrido[3,4-b]pyrazin]-3′(1′H)-one], the results for the IC50 against BTK (C481S), in the test with TMD-8 cells and on BTK were 10 nM, 140 nM and 15.1 nM, respectively.

On to `N#C[C@H]1CC[C@@]2(C1)Nc1c(cnc3[nH]cc(C(=O)c4ccc(Oc5ccccc5)cc4Cl)c13)NC2=O` (single isomer, unassigned) [Z26-2], for which the half-maximal inhibitory concentration (IC50) against BTK (C481S) was found to be 17.5 nM; in the test on TMD-8 cells it was 159 nM; at BTK it was 23.6 nM.

With `N#C[C@H]1CC[C@@]2(C1)Nc1c(cnc3[nH]cc(C(=O)c4ccc(Oc5ccccc5)cc4Cl)c13)NC2=O` (single isomer, unassigned) [Z26-3], the results for the IC50 against BTK (C481S), in the test with TMD-8 cells and on BTK were 20.6 nM, 216 nM and 34 nM, respectively.

As to `O=C(c1ccc(Oc2ccccc2)cc1Cl)c1c[nH]c2ncc3c(c12)N[C@@]1(CC[C@H](CO)OC1)C(=O)N3` (single isomer, unassigned) [Z41-2b], the half-maximal inhibitory concentration (IC50) on BTK (C481S) worked out at 6.1 nM; with TMD-8 cells it was 101 nM; at BTK it was 7.9 nM.

Consider `CN1C(=O)[C@](C)(CO)Nc2c1cnc1[nH]cc(C(=O)c3ccc(Oc4ccccc4)cc3Cl)c21` (single isomer, unassigned) [Z51-1], for which the results for the IC50 against BTK (C481S), in the test with TMD-8 cells and at BTK were 34.3 nM, 280 nM and 52.3 nM, respectively.

For `CN1C(=O)[C@@](C)(CO)Nc2c1cnc1[nH]cc(C(=O)c3ccc(Oc4ccccc4)cc3Cl)c21` (single isomer, unassigned) [Z51-2], the IC50 at BTK (C481S) was 20.8 nM; with TMD-8 cells it was 154 nM; at BTK, 32.6 nM.

As to `COCC1(C)Nc2c(cnc3[nH]cc(C(=O)c4ccc(Oc5ccccc5)cc4Cl)c23)N(C)C1=O` (single isomer, unassigned) [Z52-1, 9-(2-chloro-4-phenoxybenzoyl)-2-(methoxymethyl)-2,4-dimethyl-1,2,4,7-tetrahydro-3H-pyrrolo[3′,2′:5,6]pyrido[3,4-b]pyrazin-3-one], the IC50 against BTK (C481S) was determined as 24.2 nM; in the test on TMD-8 cells (Homo sapiens, TMD8, 72 h), 201 nM; on BTK it was 23.8 nM.

Take `[2H]C([2H])([2H])OC[C@@]1(C)Nc2c(cnc3[nH]cc(C(=O)c4ccc(Oc5ccccc5)cc4Cl)c23)NC1=O` (single isomer, unassigned) [Z66-2]: the IC50 against BTK (C481S) was 8.6 nM; with TMD-8 cells (Homo sapiens, TMD8, 72 h), 299 nM; at BTK, 12.7 nM.

With `COCCOCC1(C)Nc2c(cnc3[nH]cc(C(=O)c4ccc(Oc5ccccc5)cc4Cl)c23)NC1=O` (single isomer, unassigned) [Z153-1, 9-(2-chloro-4-phenoxybenzoyl)-2-((2-methoxyethoxy)methyl)-2-methyl-1,2,4,7-tetrahydro-3H-pyrrolo[3′,2′:5,6]pyrido[3,4-b]pyrazin-3-one], the IC50 on BTK (C481S) stood at 26 nM; in the test with TMD-8 cells (Homo sapiens, TMD8, 72 h) it was 342 nM; at BTK, 45.8 nM.

In the test with TMD-8 cells (Homo sapiens, TMD8, 72 h), `[2H]C([2H])([2H])Oc1cccc(F)c1Oc1ccc(C(=O)c2c[nH]c3ncc4c(c23)N[C@@](C)(COC)C(=O)N4)c(Cl)c1` [Z187] had an IC50 of 41.3 nM.

Turning to `COC[C@]1(C)Nc2c(cnc3[nH]cc(C(=O)c4ccccc4Cl)c23)N=C1OC` [Z200, (S)-(2-chlorophenyl)(3-methoxy-2-(methoxymethyl)-2-methyl-2,7-dihydro-1H-pyrrolo[3′,2′:5,6]pyrido[3,4-b]pyrazin-9-yl)methanone], the IC50 worked out at 9.9 nM against BTK (C481S) and 18.8 nM at BTK.

Turning to `COC[C@]1(C)Nc2c(cnc3[nH]cc(C(=O)c4ccc(Oc5ccccc5)cc4Cl)c23)N=C1SC` [Z201, (S)-(2-chloro-4-phenoxyphenyl)(2-(methoxymethyl)-2-methyl-3-(methylthio)-2,7-dihydro-1H-pyrrolo[3′,2′:5,6]pyrido[3,4-b]pyrazin-9-yl)methanone], the IC50 against BTK (C481S) was 215 nM; at BTK, 122 nM.

For the compound `COC[C@]1(C)Nc2c(cnc3[nH]cc(C(=O)c4ccc(Oc5ccccc5)cc4Cl)c23)NC1=S` [Z202, (S)-(2-chloro-4-phenoxyphenyl)(2-(methoxymethyl)-2-methyl-3-thioxo-2,3,4,7-tetrahydro-1H-pyrrolo[3′,2′:5,6]pyrido[3,4-b]pyrazin-9-yl)methanone], the results for the IC50 against BTK (C481S) and at BTK were 27.8 nM and 23.8 nM, respectively.

As to `CCSC1=Nc2cnc3[nH]cc(C(=O)c4ccc(Oc5ccccc5)cc4Cl)c3c2N[C@@]1(C)COC` [Z203, (S)-(2-chloro-4-phenoxyphenyl)(3-(ethylthio)-2-(methoxymethyl)-2-methyl-2,7-dihydro-1H-pyrrolo[3′,2′:5,6]pyrido[3,4-b]pyrazin-9-yl)methanone], the results for the IC50 on BTK (C481S) and at BTK were 142 nM and 75.1 nM, respectively.

Usually IC50 stands for the concentration that gives 50% inhibition.
